The NIST ThermoML archive (doi:10.1021/acs.jced.9b00237)

Experiment: xn = mol fraction of the nth substance listed
Conditions: 100 kPa, Liquid; for viscosity: Concentric cylinders viscometry; for mass density: Vibrating tube method

C[N+](C)(C)CCO.[Cl-] [choline chloride] + Oc1ccccc1
Conditions	mass density, 293.15 K [kg/m3]	mass density, 303.15 K [kg/m3]	mass density, 313.15 K [kg/m3]	mass density, 323.15 K [kg/m3]	mass density, 333.15 K [kg/m3]	viscosity, 293.15 K [mPa·s]	viscosity, 303.15 K [mPa·s]	viscosity, 313.15 K [mPa·s]	viscosity, 323.15 K [mPa·s]	viscosity, 333.15 K [mPa·s]
x1 = 0.2	1093	1087	1080	1073	1067	39	24.67	16.69	11.83	8.825
x1 = 0.25	1096	1089	1083	1077	1071	58.16	35.76	23.53	16.42	12.02
